Data on 7 compounds can be found in paper PMC2989642 (The European journal of neuroscience, 2010).

Where “and” joins values, the source holds several entries; their conditions need not be identical. Equal values may be shown once. Read-outs that look alike come from different tables or passages of the source.

Assay [1] relates to α7 nAChRs. It counts as cell-based, mouse.
For assay [2], the target named is T1, α7 nAChRs (Mus musculus, UniProt P49582). In kind it is cell-based.
Assay [3] deals with α7 nAChRs. It counts as cell-based, mouse. The source holds these as a separate data set.
The target of assay [4] is T1, α7 nAChRs. In kind it is cell-based. This is another data set of the same source.
Another assay concerns the target α7 receptors (Gallus gallus, UniProt P22770). It counts as cell-based, chick.
Assay [5] has as its system SCG neurons from α5α7β2 KO animals. It counts as cell-based, mouse.
Assay [6] has as its target hetero-oligomeric nAChR binding sites in SCG membranes (Mus musculus, UniProt Q8R493+Q8R4G9).
Assay [7] deals with nAChRs in adult (intact) mouse SCG. The settings on record: read-out: KD of [3H]-epibatidine binding, ref Del Signore et al., 2002; cited from earlier work.
For assay [8], the target named is α3β4α5 receptors (in the β2 KO) (Mus musculus, UniProt Q8R493+Q8R4G9). In kind it is cell-based.
Assay [9] concerns the target α3β4 receptors (in the α5β2 KO) (Mus musculus, UniProt Q8R493+Q8R4G9). Kind of assay: cell-based.
The target of assay [10] is α3β2 receptors (in the α5β4 KO) (Mus musculus, UniProt Q8R4G9+Q9ERK7). Kind of assay: cell-based. In kind it is cell-based.
A further assay has as its system human α3β4 receptors. The settings on record: ref Chavez-Noriega et al., 1997; cited from earlier work.
A further assay concerns rα3β4 receptors. To be noted: ref Wong et al., 1995; cited from earlier work.
In another assay the test system is hα3β4. To be noted: ref Nelson et al., 2001, cited from earlier work.
Another assay deals with hα3α5β4. To be noted: probed with 300 μM ACh; ref Nelson et al., 2001; cited from earlier work.

Chain of α3β4α5 receptors (in the β2 KO) (Q8R4G9 26-499): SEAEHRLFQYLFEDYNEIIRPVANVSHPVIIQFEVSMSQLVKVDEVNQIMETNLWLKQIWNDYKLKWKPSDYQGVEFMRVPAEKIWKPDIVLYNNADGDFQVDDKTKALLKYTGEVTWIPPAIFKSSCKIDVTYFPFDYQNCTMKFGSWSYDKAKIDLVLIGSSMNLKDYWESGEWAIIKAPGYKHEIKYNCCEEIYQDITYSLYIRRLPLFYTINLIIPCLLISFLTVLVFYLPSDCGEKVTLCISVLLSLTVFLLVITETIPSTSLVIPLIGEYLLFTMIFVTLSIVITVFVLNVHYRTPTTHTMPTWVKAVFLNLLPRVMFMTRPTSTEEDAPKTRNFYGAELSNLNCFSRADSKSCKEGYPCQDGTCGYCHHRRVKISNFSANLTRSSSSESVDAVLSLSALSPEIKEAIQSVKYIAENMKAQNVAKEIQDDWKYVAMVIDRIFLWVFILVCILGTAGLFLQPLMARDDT
Chain of α3β4α5 receptors (in the β2 KO) (Q8R493 21-495): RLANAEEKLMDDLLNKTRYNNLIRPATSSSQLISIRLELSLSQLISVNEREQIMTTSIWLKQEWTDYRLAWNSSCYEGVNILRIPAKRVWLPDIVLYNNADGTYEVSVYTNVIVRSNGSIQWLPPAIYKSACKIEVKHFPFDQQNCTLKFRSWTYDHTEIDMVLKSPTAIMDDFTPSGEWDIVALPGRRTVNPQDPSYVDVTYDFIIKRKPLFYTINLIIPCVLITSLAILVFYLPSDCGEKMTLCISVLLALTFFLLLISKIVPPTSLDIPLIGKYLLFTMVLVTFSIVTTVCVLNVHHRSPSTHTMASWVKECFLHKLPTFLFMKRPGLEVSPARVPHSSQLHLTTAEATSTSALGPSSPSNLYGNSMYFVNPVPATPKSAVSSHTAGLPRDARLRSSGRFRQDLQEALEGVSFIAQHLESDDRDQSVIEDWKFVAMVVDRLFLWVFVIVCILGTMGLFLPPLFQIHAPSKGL
Chain of α3β4α5 receptors (in the β2 KO) (Q2MKA5 30-467 partner): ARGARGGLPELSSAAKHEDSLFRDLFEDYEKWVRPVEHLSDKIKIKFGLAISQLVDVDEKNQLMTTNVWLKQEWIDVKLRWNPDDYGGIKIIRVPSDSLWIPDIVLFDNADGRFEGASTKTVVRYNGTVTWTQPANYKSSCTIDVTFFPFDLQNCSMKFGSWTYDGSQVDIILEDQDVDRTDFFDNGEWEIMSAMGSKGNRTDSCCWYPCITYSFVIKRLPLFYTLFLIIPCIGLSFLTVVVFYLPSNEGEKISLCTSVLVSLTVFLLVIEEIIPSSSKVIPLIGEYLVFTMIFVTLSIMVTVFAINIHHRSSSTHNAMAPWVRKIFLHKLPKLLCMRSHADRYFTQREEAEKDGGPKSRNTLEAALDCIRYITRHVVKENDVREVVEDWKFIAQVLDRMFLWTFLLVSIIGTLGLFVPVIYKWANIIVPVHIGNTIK
Chain of α3β2 receptors (in the α5β4 KO) (Q8R4G9 26-499): as the sequence (Q8R4G9 26-499) above
Chain of α3β2 receptors (in the α5β4 KO) (Q9ERK7 26-501): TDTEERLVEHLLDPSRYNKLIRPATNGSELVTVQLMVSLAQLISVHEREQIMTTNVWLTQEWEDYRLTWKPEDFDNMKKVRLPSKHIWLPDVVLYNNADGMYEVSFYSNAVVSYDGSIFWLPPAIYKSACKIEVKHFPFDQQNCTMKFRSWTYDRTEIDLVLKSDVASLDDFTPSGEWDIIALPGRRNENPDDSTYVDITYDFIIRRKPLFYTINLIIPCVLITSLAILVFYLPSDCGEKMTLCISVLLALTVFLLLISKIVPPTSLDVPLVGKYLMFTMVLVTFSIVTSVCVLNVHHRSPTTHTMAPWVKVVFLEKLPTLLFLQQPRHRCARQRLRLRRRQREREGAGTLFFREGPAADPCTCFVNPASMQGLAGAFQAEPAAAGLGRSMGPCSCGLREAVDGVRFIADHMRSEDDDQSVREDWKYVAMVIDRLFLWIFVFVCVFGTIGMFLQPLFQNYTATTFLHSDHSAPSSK
Chain of α3β4 receptors (in the α5β2 KO) (Q8R4G9 26-499): as the sequence (Q8R4G9 26-499) above
Chain of α3β4 receptors (in the α5β2 KO) (Q8R493 21-495): as the sequence (Q8R493 21-495) above
T1 sequence (P49582 23-502): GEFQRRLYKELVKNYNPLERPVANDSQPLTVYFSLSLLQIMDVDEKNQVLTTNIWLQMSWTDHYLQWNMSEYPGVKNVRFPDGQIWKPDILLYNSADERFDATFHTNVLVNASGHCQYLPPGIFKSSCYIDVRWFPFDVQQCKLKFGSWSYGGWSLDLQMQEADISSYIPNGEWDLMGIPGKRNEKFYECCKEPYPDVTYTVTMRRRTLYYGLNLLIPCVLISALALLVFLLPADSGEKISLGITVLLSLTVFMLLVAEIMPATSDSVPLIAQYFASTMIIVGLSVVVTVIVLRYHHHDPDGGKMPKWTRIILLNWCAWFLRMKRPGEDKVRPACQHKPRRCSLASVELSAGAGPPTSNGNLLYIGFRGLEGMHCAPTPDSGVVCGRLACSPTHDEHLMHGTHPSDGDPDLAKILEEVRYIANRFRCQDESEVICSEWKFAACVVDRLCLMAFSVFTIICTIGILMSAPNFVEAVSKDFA
Chain of α7 receptors (P22770 23-502 limits assumed): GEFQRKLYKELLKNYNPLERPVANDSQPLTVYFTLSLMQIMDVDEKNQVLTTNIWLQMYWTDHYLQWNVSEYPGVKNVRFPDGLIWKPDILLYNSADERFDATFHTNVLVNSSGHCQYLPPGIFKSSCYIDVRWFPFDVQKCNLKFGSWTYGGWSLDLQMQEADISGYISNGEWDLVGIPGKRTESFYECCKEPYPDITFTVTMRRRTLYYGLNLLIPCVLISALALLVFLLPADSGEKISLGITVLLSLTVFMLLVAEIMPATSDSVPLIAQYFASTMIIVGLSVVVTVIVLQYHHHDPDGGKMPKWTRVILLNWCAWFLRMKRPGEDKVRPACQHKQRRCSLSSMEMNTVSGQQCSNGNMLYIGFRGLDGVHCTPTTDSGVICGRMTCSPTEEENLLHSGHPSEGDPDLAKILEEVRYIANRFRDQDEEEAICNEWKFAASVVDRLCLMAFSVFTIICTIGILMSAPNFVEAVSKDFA
Chain of hetero-oligomeric nAChR binding sites in SCG membranes (Q8R4G9 26-499): as the sequence (Q8R4G9 26-499) above
Chain of hetero-oligomeric nAChR binding sites in SCG membranes (Q8R493 21-495): as the sequence (Q8R493 21-495) above
Chain of hetero-oligomeric nAChR binding sites in SCG membranes (Q2MKA5 30-467 partner): as the sequence (Q2MKA5 30-467 partner) above
Chain of hetero-oligomeric nAChR binding sites in SCG membranes (Q9ERK7 26-501 partner): as the sequence (Q9ERK7 26-501) above

In the case of `COc1cc(OC)c(NC(=O)Nc2cc(C)on2)cc1Cl` [PNU-120596], the “peak currents in response to 300 μM ACh in the presence of 10 μM PNU-120596” value in the assay on α7 nAChRs [1] (n = 14) is recorded as “somewhat enhanced”; in the assay with α7 nAChRs [3] (n = 13) it was “somewhat reduced”; in [5] (n = 26), “somewhat enhanced”. Also, the “choline-induced currents with 10 μM PNU-120596 versus without” value at α7 nAChRs [2] is recorded as “significantly larger”; on α7 nAChRs [4] it was “significantly larger”; in [5], “not significantly different”. Besides, the “Peak currents in response to 10 mM choline in the presence of PNU-120596” value at α7 receptors came out at 1688 ± 204 pA/pF.

For `CCN1C[C@]2(COC(=O)c3ccccc3N3C(=O)C[C@H](C)C3=O)CC[C@H](OC)[C@@]34[C@@H]5C[C@H]6[C@H](OC)[C@@H]5[C@](O)(C[C@@H]6OC)[C@@](O)([C@@H](OC)[C@H]23)[C@@H]14` [MLA, methyllycaconitine], the “effect of MLA on peak currents in response to 500 μM ACh” value with α7 nAChRs [1] and with α7 nAChRs [3] was “unaffected” throughout.

Regarding `C[N+](C)(C)CCO` [choline], the figures for the “currents induced by choline” value in the assay on α7 nAChRs [1] and on α7 nAChRs [4] were “slowly decaying currents of considerable amplitude” and “negligible currents”, respectively. Moreover, the “Peak currents in response to 10 mM choline” value at α7 receptors came to 40.4 ± 3.8 pA/pF.

By Kd is commonly meant a measure of binding affinity in units of concentration. With `Clc1ccc(C2CC3CCC2N3)cn1` (racemic) [[^3H]-epibatidine, [5,6.bicycloheptyl-^3H](+/−)epibatidine], the “Bmax of [3H]-epibatidine binding” value came out at 345.8 ± 25.6 fmol/mg protein in [6] (averaged from 4 experiments, P18 WT SCG membranes) and 371.2 ± 13.5 fmol/mg protein in assay [6] (single experiment shown in Fig. 1A). In addition, the Kd in assay [7] was 0.000137 µM.

What is called EC50 is the concentration giving half of the maximal effect. By Hill coefficient is commonly meant a measure of the steepness of the concentration-response curve. Turning to `C[N+]1(C)CCN(c2ccccc2)CC1.[I-]` [DMPP, 1,1-dimethyl-4-phenylpiperazinium iodide], the EC50 in [8] is 23 ± 1.17 µM; in [8] (read-out: fictitious EC50), 39.2 µM; in assay [9] (EC50), 19 ± 0.76 µM; in [9] (fictitious EC50), 16.1 µM; in assay [10], 11 ± 1.79 µM. Besides, the figures for the Hill coefficient in assay [8], in assay [9] and in assay [10] were 1.79 ± 0.08, 1.91 ± 0.06 and 1.21 ± 0.12, respectively.

`O=c1cccc2n1C[C@@H]1CNC[C@H]2C1` [Cytisine, cytisine]: the “potency ratio cytisine/DMPP” value in the assay with human α3β4 receptors is on record as 4; with rα3β4 receptors, 1.47; in the assay with hα3β4 it was 1.29. In addition, the EC50 in assay [8] was determined as 37.7 ± 2.43 µM; in assay [8] (read-out: fictitious EC50), 26.2 µM; in [9] (EC50), 34.5 ± 2.26 µM; in [9] (fictitious EC50), 21.7 µM. Besides, the Hill coefficient in assay [8] is on record as 1.10 ± 0.02; in [9] it was 1.44 ± 0.06. The “low-concentration potency ratio cytisine/DMPP” value is 0.76 ± 0.04 and 0.76 in [8]; 1.23 in assay [9]. Also, the “potency ratio cytisine/DMPP (low concentration)” value is 0.67 in assay [8] and 1.34 in assay [9].

For the compound `CC(=O)OCC[N+](C)(C)C` [ACh, acetylcholine], the decay time constant with hα3α5β4 was 563 ms. For the same compound, in assay [8], the “Af (fast amplitude, share of current)” value was determined as 16.8 ± 1.1 % ^1; the “Af + As + C (total amplitude)” value is 3907 ± 230 pA ^6; the “Af, fast” value is given as −809 pA; the “As (slow amplitude, share of current)” value is 48.6 ± 2.6 % ^3. Moreover, in assay [8], the “As, slow” value is −2899 pA; the “C (plateau, share of current)” value stood at 34.5 ± 2.8 % ^5; the “Tf (fast decay time constant)” value is 449 ± 30 (msec) ^2; the “Tf, fast” value was determined as 0.47 s. In assay [8], the “Ts (slow decay time constant)” value is listed as 5592 ± 509 (msec) ^4; the “Ts, slow” value was found to be 6.98 s; the plateau is given as −943 pA. In addition, in assay [9], the “Af (fast amplitude, share of current)” value is given as 13.0 ± 0.7 % ^1; the “Af + As + C (total amplitude)” value amounted to 3747 ± 215 pA ^6; the “As (slow amplitude, share of current)” value is 56.3 ± 2.3 % ^3; the “C (plateau, share of current)” value was determined as 30.5 ± 2.8 % ^5. Moreover, in assay [9], the Hill coefficient came to 1.60 ± 0.05, the “Tf (fast decay time constant)” value is on record as 444 ± 22 (msec) ^2 and the “Ts (slow decay time constant)” value is 5495 ± 496 (msec) ^4. For the same compound, the decay time constant in the assay with hα3β4 (probed with 300 μM ACh) was 495 ms. Further, in assay [10], the “Af (fast amplitude, share of current)” value worked out at 50.5 ± 2.1%; the “Af + As + C (total amplitude)” value stood at 1166 ± 77 pA; the “Af, fast” value was −1171 pA; the “As (slow amplitude, share of current)” value turned out to be 36.2 ± 1.7%. Further, in [10], the “As, slow” value is given as −472 pA; the “C (plateau, share of current)” value stood at 13.2 ± 1.0%; the EC50 worked out at 169 ± 25.2 µM; the Hill coefficient was determined as 0.67 ± 0.04. Besides, in assay [10], the “Tf, fast” value came to 115 ms; the “Ts, slow” value turned out to be 1477 ms; the plateau is listed as −140 pA.
